Publication PMC5147024, “Combined Whole-Cell High-Throughput Functional Screening for Identification of New Nicotinamidases/Pyrazinamidases in Metagenomic/Polygenomic Libraries” (Frontiers in Microbiology, 2016)
pKi: −log10 of the molar value.

Target: T1, PolyNic (polygenomic nicotinamidase)
T1 construct: 588 bp PCR product in pET-46 Ek/LIC, expressed in E. coli Rosetta 2 (DE3); dimer
Assay: HPLC nicotinamidase assay, Morrison fit, NAM as substrate (Ki […] with PZA as substrate)
Format: biochemical

pKi: 6.74
SMILES: O=Cc1cccnc1 [nicotinaldehyde]
